Measurements published in US20250000999A1, “POLYMERSOMES FOR CLEARANCE OF AMYLOID BETA AND/OR TAU PROTEINS” (UCL Business Ltd, priority 2021, published 2025).

System: LRP-1
Experiment: Single binding energy of a ligand/LRP-1 receptor pair
Source text: wherein: • λ is the density of the ligand type on the external surface of the microparticle or nanoparticle (number per nm^2 • A is the microparticle or nanoparticle surface area (in nm^2); • ξ is the number of the LRP-1 receptors accessible to the nanoparticles, and thus ξ=ΓA where, Γ is the LRP-1 surface density (number per nm^2) and A is as defined above; • β=(kBT)^−1 wherein kB is the Boltzmann constant (in JK^−1) and T is the absolute temperature in Kelvin; • εB is the single energy of binding of a ligand type/LRP-1 receptor pair (in J); and • uS is the steric potential between the nanoparticle or microparticle and the cell surface (in J).
The single ligand binding potential εB between a given ligand and the LRP-1 receptor can be measured experimentally by binding assays including Surface plasmon resonance spectroscopy, Isothermal titration calorimetry, radiolabeling or fluorescent labelling. It can also be estimated computationally using molecular docking and or molecular dynamics methods.

LRP-1, sequence (Q07954 20-4544, species assumed): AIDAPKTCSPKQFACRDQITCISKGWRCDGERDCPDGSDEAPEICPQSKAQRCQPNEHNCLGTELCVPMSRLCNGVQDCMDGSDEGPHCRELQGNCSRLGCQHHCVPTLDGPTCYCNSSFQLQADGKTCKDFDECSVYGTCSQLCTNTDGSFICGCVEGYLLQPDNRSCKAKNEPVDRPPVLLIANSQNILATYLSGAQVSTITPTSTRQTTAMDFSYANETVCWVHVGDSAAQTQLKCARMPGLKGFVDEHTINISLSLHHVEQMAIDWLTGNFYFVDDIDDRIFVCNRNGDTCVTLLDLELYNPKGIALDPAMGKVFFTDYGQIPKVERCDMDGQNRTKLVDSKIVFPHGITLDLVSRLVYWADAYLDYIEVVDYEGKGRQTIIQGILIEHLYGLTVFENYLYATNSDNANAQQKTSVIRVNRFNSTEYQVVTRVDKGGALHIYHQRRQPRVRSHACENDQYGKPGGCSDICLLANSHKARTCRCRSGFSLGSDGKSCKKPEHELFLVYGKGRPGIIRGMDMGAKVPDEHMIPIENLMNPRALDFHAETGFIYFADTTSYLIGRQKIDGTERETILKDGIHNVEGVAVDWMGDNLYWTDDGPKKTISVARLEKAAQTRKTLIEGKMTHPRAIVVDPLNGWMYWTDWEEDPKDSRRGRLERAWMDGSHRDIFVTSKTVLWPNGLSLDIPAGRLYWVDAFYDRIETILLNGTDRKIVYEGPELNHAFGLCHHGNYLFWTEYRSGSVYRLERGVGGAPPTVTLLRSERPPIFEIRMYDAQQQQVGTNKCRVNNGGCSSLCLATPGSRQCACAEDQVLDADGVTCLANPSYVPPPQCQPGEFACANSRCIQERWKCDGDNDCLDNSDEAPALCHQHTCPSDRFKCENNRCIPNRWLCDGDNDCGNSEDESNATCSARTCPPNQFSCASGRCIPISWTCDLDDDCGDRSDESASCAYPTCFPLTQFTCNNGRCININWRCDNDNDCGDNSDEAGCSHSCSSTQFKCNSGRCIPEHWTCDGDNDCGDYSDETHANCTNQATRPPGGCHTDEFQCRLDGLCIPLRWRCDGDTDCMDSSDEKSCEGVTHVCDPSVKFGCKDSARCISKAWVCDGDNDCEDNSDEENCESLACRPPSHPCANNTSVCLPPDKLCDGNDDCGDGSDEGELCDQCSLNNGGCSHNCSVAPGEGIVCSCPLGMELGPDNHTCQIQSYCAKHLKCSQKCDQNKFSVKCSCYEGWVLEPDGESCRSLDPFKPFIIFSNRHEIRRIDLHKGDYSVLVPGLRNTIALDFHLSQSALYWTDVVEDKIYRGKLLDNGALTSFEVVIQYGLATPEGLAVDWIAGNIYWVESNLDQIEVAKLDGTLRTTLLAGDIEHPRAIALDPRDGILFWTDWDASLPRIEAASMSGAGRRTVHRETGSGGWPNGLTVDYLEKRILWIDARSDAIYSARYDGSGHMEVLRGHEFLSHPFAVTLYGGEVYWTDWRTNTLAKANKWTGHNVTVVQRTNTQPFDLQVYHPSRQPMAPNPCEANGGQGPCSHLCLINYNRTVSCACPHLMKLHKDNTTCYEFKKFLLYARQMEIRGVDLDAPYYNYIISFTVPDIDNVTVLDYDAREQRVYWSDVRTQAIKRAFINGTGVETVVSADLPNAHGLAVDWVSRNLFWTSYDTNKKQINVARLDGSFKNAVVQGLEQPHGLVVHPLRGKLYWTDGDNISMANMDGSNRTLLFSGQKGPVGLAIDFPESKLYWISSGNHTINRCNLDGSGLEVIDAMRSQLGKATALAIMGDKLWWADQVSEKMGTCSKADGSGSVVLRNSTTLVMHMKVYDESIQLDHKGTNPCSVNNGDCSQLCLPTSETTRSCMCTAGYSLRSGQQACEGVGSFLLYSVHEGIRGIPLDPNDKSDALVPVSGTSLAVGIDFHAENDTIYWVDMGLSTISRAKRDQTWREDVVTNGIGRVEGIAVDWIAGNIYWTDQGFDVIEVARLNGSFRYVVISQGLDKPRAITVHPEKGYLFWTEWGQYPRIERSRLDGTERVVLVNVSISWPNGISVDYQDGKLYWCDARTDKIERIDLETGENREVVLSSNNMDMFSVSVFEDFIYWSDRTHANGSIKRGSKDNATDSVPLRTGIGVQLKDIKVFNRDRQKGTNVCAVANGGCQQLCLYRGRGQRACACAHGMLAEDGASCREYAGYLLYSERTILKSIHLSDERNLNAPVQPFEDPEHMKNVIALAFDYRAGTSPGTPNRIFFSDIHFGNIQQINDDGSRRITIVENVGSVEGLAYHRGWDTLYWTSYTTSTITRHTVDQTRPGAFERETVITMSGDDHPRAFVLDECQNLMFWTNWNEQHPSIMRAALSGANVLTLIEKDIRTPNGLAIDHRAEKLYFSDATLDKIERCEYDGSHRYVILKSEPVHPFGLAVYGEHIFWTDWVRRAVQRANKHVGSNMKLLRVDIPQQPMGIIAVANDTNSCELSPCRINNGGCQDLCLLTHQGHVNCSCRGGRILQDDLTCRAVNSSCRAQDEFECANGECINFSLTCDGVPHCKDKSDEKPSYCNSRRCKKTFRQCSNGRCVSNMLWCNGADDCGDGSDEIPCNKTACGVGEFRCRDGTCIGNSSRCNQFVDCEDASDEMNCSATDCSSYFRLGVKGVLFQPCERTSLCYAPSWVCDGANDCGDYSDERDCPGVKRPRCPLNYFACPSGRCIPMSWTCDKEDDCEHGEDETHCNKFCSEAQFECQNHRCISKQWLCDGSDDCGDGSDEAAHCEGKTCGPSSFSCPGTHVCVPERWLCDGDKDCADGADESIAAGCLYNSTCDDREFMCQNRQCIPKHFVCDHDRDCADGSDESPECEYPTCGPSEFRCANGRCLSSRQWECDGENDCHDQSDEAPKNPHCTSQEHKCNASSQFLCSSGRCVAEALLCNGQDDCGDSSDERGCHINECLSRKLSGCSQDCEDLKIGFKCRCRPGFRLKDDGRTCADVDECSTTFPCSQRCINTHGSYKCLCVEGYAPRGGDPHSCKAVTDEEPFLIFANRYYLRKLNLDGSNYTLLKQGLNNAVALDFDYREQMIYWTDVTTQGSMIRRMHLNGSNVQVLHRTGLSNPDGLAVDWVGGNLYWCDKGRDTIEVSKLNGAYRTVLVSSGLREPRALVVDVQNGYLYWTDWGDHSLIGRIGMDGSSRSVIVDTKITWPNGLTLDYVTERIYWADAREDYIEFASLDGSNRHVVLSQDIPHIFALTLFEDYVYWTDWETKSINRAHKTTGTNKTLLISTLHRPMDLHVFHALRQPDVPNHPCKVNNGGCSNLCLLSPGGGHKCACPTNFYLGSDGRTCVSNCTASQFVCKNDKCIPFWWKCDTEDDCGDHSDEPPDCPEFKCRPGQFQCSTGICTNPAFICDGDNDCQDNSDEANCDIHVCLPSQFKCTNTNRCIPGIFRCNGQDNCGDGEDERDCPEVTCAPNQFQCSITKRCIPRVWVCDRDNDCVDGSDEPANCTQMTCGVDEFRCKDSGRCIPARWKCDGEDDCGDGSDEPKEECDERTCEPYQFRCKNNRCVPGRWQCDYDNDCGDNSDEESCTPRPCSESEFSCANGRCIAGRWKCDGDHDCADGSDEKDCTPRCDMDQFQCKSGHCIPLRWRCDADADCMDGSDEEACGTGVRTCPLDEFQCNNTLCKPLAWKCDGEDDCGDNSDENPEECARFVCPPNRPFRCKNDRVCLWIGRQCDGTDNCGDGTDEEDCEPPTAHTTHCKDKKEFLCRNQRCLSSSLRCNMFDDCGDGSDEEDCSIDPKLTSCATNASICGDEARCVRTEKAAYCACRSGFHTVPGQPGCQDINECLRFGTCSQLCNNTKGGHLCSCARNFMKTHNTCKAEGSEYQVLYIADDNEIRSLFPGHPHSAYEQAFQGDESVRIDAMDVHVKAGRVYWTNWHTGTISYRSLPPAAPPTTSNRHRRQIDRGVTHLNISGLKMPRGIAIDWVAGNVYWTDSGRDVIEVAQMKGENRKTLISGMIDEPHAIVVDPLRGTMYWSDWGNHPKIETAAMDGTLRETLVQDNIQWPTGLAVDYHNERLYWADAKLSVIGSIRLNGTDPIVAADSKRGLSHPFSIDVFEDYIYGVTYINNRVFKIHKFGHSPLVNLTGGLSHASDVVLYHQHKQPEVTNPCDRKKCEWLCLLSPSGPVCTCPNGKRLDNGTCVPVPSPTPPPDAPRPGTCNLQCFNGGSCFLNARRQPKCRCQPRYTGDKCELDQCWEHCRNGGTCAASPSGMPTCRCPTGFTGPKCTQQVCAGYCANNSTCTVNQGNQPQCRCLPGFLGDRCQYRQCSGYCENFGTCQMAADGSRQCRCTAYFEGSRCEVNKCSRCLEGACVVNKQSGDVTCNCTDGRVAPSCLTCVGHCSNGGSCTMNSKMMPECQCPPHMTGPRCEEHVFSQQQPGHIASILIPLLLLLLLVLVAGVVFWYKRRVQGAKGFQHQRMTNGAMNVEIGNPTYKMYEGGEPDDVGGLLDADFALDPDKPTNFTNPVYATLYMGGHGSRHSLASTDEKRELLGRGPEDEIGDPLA

εB, single energy of binding of ligand/LRP-1 receptor pair: −15 kBT
Sequence: TFFYGGSRGKRNNFKTEEY [Angiopep-2]
